Tests used:
human GPR120 = human GPR120 (Homo sapiens (Human), UniProt Q5NUL3); test: GPR120 pERK AlphaScreen SureFire Assay (human); format: cell-based; conditions: CHO cells stably transfected with short form of human GPR120
From the text: GPR120 activity was monitored by measuring phosphorylation of ERK (pERK), since G protein receptors are known to activate the ERK signaling cascade either directly and/or through recruitment of arrestin that serves as a scaffold for downstream signaling events.
GPR120 pERK AlphaScreen SureFire Assay
The human and mouse GPR120-mediated intracellular phosphorylated ERK assays were established using CHOA12 cells stably transfected with the short form of human or mouse GPR120 receptor. […] Cells were cryo preserved at a concentration of 2×10^7 cells/mL, in 90% Charcoal/Dextran FBS and 10% DMSO, and frozen in liquid nitrogen at a low passage number.
The flasks were placed in a tissue culture incubator overnight (37° C., 5% CO2). […] The next day, cells were serum starved in 30 μL of F-12 media without any serum or antibiotics for 2 hours at 37° C.
Cells were then stimulated with 50 nL of compound dilutions using ECHO liquid handler for 7 minutes at 37° C.
(§1) The lysis buffer was diluted 5-fold with water before use. […] The SureFire assay reagent mix was prepared by mixing 60 parts Reaction Buffer, 10 parts Activation Buffer, 1 part Donor Beads, 1 part Acceptor Beads (Perkin Elmer Cat. #TGRES10K). 3.5 μL/well of this reagent mix was manually added to the proxiplate with a multichannel pipettor. Plates were spun down at 1000 rpm for 2 minutes, followed by light-protected incubation at room temperature for 2 hours. The plates were read on the Alpha-technology compatible Envision multilabel plate reader using AlphaScreen protocol according to manufacturer's specifications. The agonist effect of compounds was expressed as 100× (average sample−average blank)/(average total−average blank) where sample is the luminescence activity in the presence of test compound, blank is equal to the luminescence activity in the presence of DMSO control and the total is signal induced by 50 μM linolenic acid as reference compound. Activation data for the test compound over a range of concentrations was plotted as percentage activation of the test compound (100%=maximum response). After correcting for background, EC50 values were determined.
The human and mouse GPR120-mediated intracellular phosphorylated ERK assays were also established using CHO-K1 cells stably transfected with the short form of human or mouse GPR120 receptor. […] Cells were cryo preserved at a concentration of 3×10^6 cells/mL, in 70% F-12, 20% Charcoal/Dextran FBS and 10% DMSO, and frozen in liquid nitrogen at a low passage number.
The flasks were placed in a tissue culture incubator overnight (37° C., 5% CO2).
Cells were then stimulated with 40 nL of compound dilutions using ECHO liquid handler for 7 minutes at 37° C.
as §1, with “compound.” for “compound. Activation data for the test compound over a range of concentrations was plotted as percentage activation of the test compound (100%=maximum response). After correcting for background, EC50 values were determined.”
Activation data for the test compound over a range of concentrations was plotted as percentage activation of the test compound (100%=maximum response). After correcting for background, EC50 values were determined.

C57BL/6 mice = test: Acute Oral Glucose Tolerance Test; format: in vivo, mouse; conditions: dosed at 30 mg/kg orally 60 min before glucose challenge (2 g/kg), AUC t=0-120 min compared to vehicle
Description: In Vivo GPR120 Assays 1) Acute Oral Glucose Tolerance Test
C57BL/6 mice were housed individually and fed a standard rodent chow diet. At approximately 11 weeks age, after a 5 h fast, these mice were orally treated with vehicle or test compounds 60 min before a glucose challenge (2 g/kg). Blood glucose levels were determined from tail bleeds taken at −60, 0, 15, 30, 60 and 120 min after the glucose challenge. […] This AUC for compound treatment is compared to vehicle treatment.

Chain of human GPR120 (Q5NUL3 whole entry): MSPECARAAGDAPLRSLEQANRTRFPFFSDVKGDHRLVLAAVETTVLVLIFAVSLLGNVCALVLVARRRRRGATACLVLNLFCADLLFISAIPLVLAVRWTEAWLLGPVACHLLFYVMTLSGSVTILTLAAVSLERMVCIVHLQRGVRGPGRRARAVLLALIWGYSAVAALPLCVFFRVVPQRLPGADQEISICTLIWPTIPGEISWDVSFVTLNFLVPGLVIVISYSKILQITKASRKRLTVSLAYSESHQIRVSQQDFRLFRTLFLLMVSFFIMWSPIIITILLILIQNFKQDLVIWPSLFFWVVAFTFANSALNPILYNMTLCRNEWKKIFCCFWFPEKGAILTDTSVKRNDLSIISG

| Structure (SMILES) | EC50 (human GPR120) [nM] | reduced glucose AUC (C57BL/6 mice) [%] |
| --- | --- | --- |
| O=C(O)CO[C@H]1C[C@@H](c2ccc(-c3cc(Oc4ccccc4)ccc3F)cc2)C1 [Example 1, Cis-2-(-3-(2′-fluoro-5′-phenoxy-[1,1′-biphenyl]-4-yl)cyclobutoxy)acetic acid] | 170 | 42 |
| O=C(O)CO[C@H]1C[C@@H](c2ccc(-c3cc(Oc4cccc(F)c4)cc(F)c3F)cc2)C1 [Example 36, Cis-2-(3-(2′,3′-difluoro-5′-(3-fluorophenoxy)-[1,1′-biphenyl]-4-yl)cyclobutoxy) acetic acid] | 130 | – |
| O=C(O)C[C@H]1C[C@@H](Oc2ccc(-c3cc(Oc4ccccc4)ccc3F)cc2)C1 [Example 67, Cis-2-(3-((2′-fluoro-5′-phenoxy-[1,1′-biphenyl]-4-yl)oxy)cyclobutyl)acetic acid] | 330 | – |
| COc1cc(OC(C)C)cc(-c2ccc([C@H]3C[C@@H](OCC(=O)O)C3)cc2)c1 [Example 19, Cis-2-(3-(3′-isopropoxy-5′-methoxy-[1,1′-biphenyl]-4-yl)cyclobutoxy)acetic acid] | 1590 | – |
| CC(C)Oc1cc(Cl)cc(-c2ccc([C@H]3C[C@@H](OCC(=O)O)C3)cc2)c1 [Example 11, Cis-2-(3-(3′-chloro-5′-isopropoxy-[1,1′-biphenyl]-4-yl)cyclobutoxy) acetic acid] | 560 | – |
| Cc1ccc(Oc2cc(F)c(F)c(-c3ccc([C@H]4C[C@@H](OCC(=O)O)C4)cc3)c2)cc1F [Example 35, Cis-2-(3-(2′,3′-difluoro-5′-(3-fluoro-4-methylphenoxy)-[1,1′-biphenyl]-4-yl)cyclobutoxy)acetic acid] | 290 | – |
